± gives the expanded uncertainty stated by the source.
Test: xn = mol fraction of the nth substance listed
Conditions: 313.15 K; for surface tension liquid-gas: Pendant drop shape; for mass density: Liquid, Vibrating tube method

CCCCC [pentane] + C
Conditions	mass density [kg/m3]	surface tension liquid-gas [mN/m]
x2 = 0.048	594.4 ± 1.1	12 ± 0.2
x2 = 0.101	581 ± 1.2	10.13 ± 0.21
x2 = 0.181	558.8 ± 1.3	7.61 ± 0.18
x2 = 0.263	533.1 ± 1.4	5.37 ± 0.16
x2 = 0.351	501.8 ± 1.7	3.26 ± 0.14
x2 = 0.43	466.3 ± 1.9	1.68 ± 0.11
x2 = 0.501	431.5 ± 2	0.761 ± 0.1
